Data set [1] has as its system formalin-induced nociceptive response. Briefly: Formalin-induced nociceptive response in rats. As to conditions: for inhibition in vivo at 10 mg/kg: Rattus norvegicus, po, 10 mg/kg orally 30 minutes before formalin. Format: in vivo, rat. On the procedure: Specifically, 25 μL of 0.5% formalin solution was subcutaneously injected into the left foot pad of the rat, and then each behavior of the rat consisting of the licking or biting of the pad immediately following the injection was checked with a stopwatch for its duration, and its cumulative duration was recorded at five minute intervals. […] The test compound was orally applied to the rat 30 minutes before the subcutaneous injected of formalin. Then, the inhibitory effect of the test compound on the nociceptive response induced by the formalin injection was calculated according to the following formula. To mention, for illustration, the inhibitory effect of carbamazepine, an agent to serve as a comparative example, if it is orally applied at 50 mg/kg, it inhibits the first-phase response by 52%, while it inhibits the second-phase response by 59%. Percent inhibition (%) -[([…]]×100 wherein […] is the response time (sec) of the test group which received formalin and the test compound, while PRcontol is the response time of the control group which received formalin alone.

The test system of data set [2] is isolated myocardial cells. The experiment in a line: Inhibition of veratrine-induced contracture of isolated myocardial cells. In kind it is cell-based. To be noted: Rattus norvegicus; veratrine 100 μg/mL, test compound 30 minutes before. The protocol: Specifically, the heart removed from the rat according to the Langendorff's method was treated with an enzyme, and isolated myocardial cells were obtained. The myocardial cells were inoculated on a 48 multi-well plate (3548 Coster) previously coated with poly-L-lysine at a rate of 1×10^4 cells/well. The plate was kept at 37° C. for 1 hour while being exposed to a flow of gas comprising 95% O2 and 5% CO2, to allow the cells to adhere to the bottom of each well. Then, the test compound was added to each well, and allowed to be there for 30 minutes, and […] to each well to 100 μg/mL. Five minutes later, the cells of each well was checked for their morphological changes, and the changes were photographed. If the cells' shape changed from a rod-like one into a ball-like one in the presence of veratrine, the cells were regarded as falling to contracture as a result of the exposure to veratrine. The inhibitory effect of the test compound on the contracture was determined by the probit method, and was expressed in terms of IC50. Veratrine is a mixture of […] alkaloids. If veratrine is applied to isolated myocardial cells, the cells which take a rod-like shape in a normal state will fall to contracture, taking a ball-like shape. Veratrine, when applied to isolated myocardial cells, is thought to cause a persistent sodium current in the cells, by suppressing the inactivation of the sodium channel in the cells, which leads to the contracture of the cells (Donck et al., ibid).

The target of data set [3] is batrachotoxin receptors in the synaptosome from the rat brain (sodium channel). Briefly: Inhibition of the binding of batrachotoxin to receptors in rat brain synaptosome. To be noted: 1.5 nM tritiated batrachotoxin A20-alfa-benzoate, 100 μM veratridine, 37° C., 30 minutes.
Data set [4] deals with response threshold to a mechanical stimulus. Briefly: Rat model made by loosely constricting the sciatic nerve (Bennett), von Frey threshold. In kind it is in vivo. To be noted: constriction, 1 hour after dosing. On the procedure: (“Pain,” 33:87, 1988). Specifically, the rat was anesthetized with i.p. injection of pentobarbital sodium at 40 mg/kg; the overlying skin was cut open; and the left biceps femoris muscle was bluntly separated. The sciatic nerve was isolated from surrounding tissues; it was gently constricted at four sites about 1 mm apart from each other by the use of surgical gut sutures (4-0); the operated part was closed; and the rat was returned to its cage for further feeding. For the rat belonging to the sham-surgery group, the same operation was performed except that the sciatic nerve was left untouched. Two weeks after the surgery, the response threshold to a mechanical stimulus consisting of touch with a von Frey filament was determined. The test proceeded as follows: the test compound dissolved or suspended in a solvent (0.5% aqueous solution of hydroxypropylmethyl cellulose) was orally applied to the rat having the sciatic nerve constricted; one hour later, von Frey hairs were applied against the foot pad (spots ranging from heel to the mid-point of foot) one after another in an ascending order of their stiffness; if the rat raises its foot when a certain von Frey hair was applied, the stimulus intensity of that hair was taken as the response threshold (maximum stimulus intensity being 28.84g).

Data set [5] has as its system Crj:CD(SD) IGS female rats. Briefly: Toxicological study, 14-day oral gavage. To be noted: 5 or 10 mg/kg/day orally once daily for 14 days.
For data set [6], the system named is transient sodium current in neuroblastoma cells. The experiment in a line: Voltage-clamp, transient sodium current. To be noted: at 53 μM.
Experimental: This experiment was undertaken by the method disclosed by Verdonck et al., Eur. J. Pharmacol., 203:371, 1991. Neuroblastoma cells were used. Isolated cells were strewn over a recording chamber filled with perfusion fluid; the membrane currents are recorded in a whole cell configuration by the voltage-clamp method based on the use of a glass microcapillary. Current components due to ions other than sodium ion were eliminated as follows. The potassium current was removed by cesium ion introduced in the capillary, and the calcium current was removed by cobalt ion added to the perfusion fluid. Measurement of the transient sodium current of the cells was achieved by applying depolarizing pulses at appropriate intervals to the cells clamped at holding potential, and by observing a transient inward current elicited therewith.
Setting [7] is: 10 min, first 10 minutes, read-out: Response inhibition, 1st phase.
[8] abbreviates: 0.75 h, 10 to 45 minutes, read-out: Response inhibition, 2nd phase.

Results on 15 compounds are retold here after patent US6642257B2, “Agents for treating neuropathic pain” (Mochida Pharmaceutical Co., Ltd., priority 1999, dated 2003).

SMILES strings stand for the structures. Counter-ions that a name gives are not always drawn. Like-named read-outs stand apart in the source and are kept apart here. Marks after values point to notes of the source that are not given here.

Broadly, the melting point is the temperature, or range, at which the solid turns liquid. `CC(C)Oc1ccc(N(C)CCC2(O)CCN(CCc3ccoc3)CC2)cc1.Cl.Cl` [Example 84, 1-[2-(3-furyl)ethyl]-4-[2-[N-methyl-N-(4-isopropoxyphenyl)amino]ethyl]piperidin-4-ol dihydrochloride] came in with a melting point of 202.6 to 203.9 °C. The inhibition in vivo at 10 mg/kg in data set [1] (setting [7]) was 23%. Also, the inhibition in vivo at 10 mg/kg in data set [1] (setting [8]) was 49%.

Broadly, the IC50 is the concentration that inhibits the measured activity by half. Consider `CC(C)Oc1ccc(N(C)CCC2(O)CCN(CCc3ccc(F)cc3)CC2)cc1.Cl.Cl` [Example 55, 1-[2-(4-fluorophenyl)ethyl]-4-[2-[N-methyl-N-(4-isopropoxyphenyl)amino]ethyl]piperidin-4-ol dihydrochloride], for which the melting point was 252 °C (dec.). For the same compound, the inhibition in vivo at 10 mg/kg in data set [1] (setting [7]) is 30%. Also, the inhibition in vivo at 10 mg/kg in data set [1] (setting [8]) was 55%. Also, the IC50 in data set [2] was determined as 1340 nM. The IC50 in data set [3] amounted to 280 nM.

Turning to `CC(C)Oc1ccc(N(C)CCC2(O)CCN(CCc3ccccc3C(F)(F)F)CC2)cc1` [Example 65, 4-[2-[N-methyl-N-(4-isopropoxyphenyl)amino]ethyl]-1-[2-[2-(trifluoromethyl)phenyl]ethyl]piperidin-4-ol dihydrochloride], the results for the inhibition in vivo at 10 mg/kg in data set [1] (setting [7]) and in data set [1] (setting [8]) were 93% and 96%, respectively.

Regarding `CC(C)Oc1ccc(N(C)CCC2(O)CCN(CCc3cccc(F)c3)CC2)cc1` [Example 58, 1-[2-(3-fluorophenyl)ethyl]-4-[2-[N-methyl-N-(4-isopropoxyphenyl)amino]ethyl]piperidin-4-ol dihydrochloride], the inhibition in vivo at 10 mg/kg in data set [1] (setting [7]) is 29%; in data set [1] (setting [8]), 56%.

For `NC(=O)N1c2ccccc2C=Cc2ccccc21` [carbamazepine, reference compound], in data set [1] (orally applied at 50 mg/kg), the “Inhibition of the first-phase response” value worked out at 52% and the “Inhibition of the second-phase response” value amounted to 59%. Also, in data set [4] (50 mg/kg oral), the “Mean threshold, normal foot (right)” value is on record as 19.85 g and the “Mean threshold, test foot (left)” value was found to be 8.97 g. In addition, in data set [4] (100 mg/kg oral), the “Mean threshold, normal foot (right)” value worked out at 27.13 g and the “Mean threshold, test foot (left)” value is on record as 19.43** g. Besides, the IC50 in data set [3] was ≥ 300000 nM.

With `CC(C)Oc1ccc(N(C)CCC2(O)CCN(CCc3ccc(C#N)cc3)CC2)cc1.Cl.Cl` [Example 51, 1-[2-(4-cyanophenyl)ethyl]-4-[2-[N-methyl-N-(4-isopropoxyphenyl)amino]ethyl]piperidin-4-ol dihydrochloride], the inhibition in vivo at 10 mg/kg came out at 46% in data set [1] (setting [7]) and 67% in data set [1] (setting [8]). The “Mean threshold, normal foot (right)” value in data set [4] (2.5 mg/kg oral) came out at 16.43 g; in data set [4] (5 mg/kg oral) it was 16.43 g; in data set [4] (10 mg/kg oral), 16.85 g. The “Mean threshold, test foot (left)” value in data set [4] (2.5 mg/kg oral) is recorded as 8.33 g; in data set [4] (5 mg/kg oral), 12.63* g; in data set [4] (10 mg/kg oral), 15.58** g. Further, the IC50 in data set [2] was found to be 1560 nM; in data set [3], 610 nM. In addition, the Body weight entry in data set [5] is listed as “no loss in the weight”. Further, the General conditions result in data set [5] is given as “no notable abnormalities in general conditions”. Further, the Histopathological examination result in data set [5] is on record as “no abnormal findings were obtained”. Besides, the “Survival during treatment period” value in data set [5] is “All the rats survived”. Besides, the “Decrease of the peak value of the transient inward current” value in data set [6] is on record as 18%.

Take `CC(C)Oc1ccc(N(C)CC2(O)CCN(CCc3ccc(C#N)cc3)CC2)cc1.Cl.Cl` [Example 96, 1-[2-(4-cyanophenyl)ethyl]-4-[N-methyl-N-(4-isopropoxyphenyl)aminomethyl]piperidin-4-ol dihydrochloride]: the melting point was in the range of 202.8 to 203.4 °C. For the same compound, the inhibition in vivo at 10 mg/kg in data set [1] (setting [7]) turned out to be 74%. Also, in data set [1] (setting [8]), the inhibition in vivo at 10 mg/kg was 69%.

Turning to `CC(C)Oc1ccc(N(C)CCC2(O)CCN(CCc3ccccc3)CC2)cc1.Cl.Cl` [Example 50, 4-[2-[N-methyl-N-(4-isopropoxyphenyl)-amino]ethyl]-1-(2-phenylethyl)piperidin-4-ol dihydrochloride], the melting point was in the range of 189.7 to 192.6 °C. In addition, the inhibition in vivo at 10 mg/kg in data set [1] (setting [7]) was 44%. In data set [1] (setting [8]), the inhibition in vivo at 10 mg/kg amounted to 64%. In addition, in data set [2], the IC50 turned out to be 1510 nM. This compound also gave an IC50 in data set [3] of 300 nM.

For the compound `CC(C)Oc1ccc(NCCC2(O)CCN(CCc3ccc(C#N)cc3)CC2)cc1.Cl.Cl`, the melting point is 197.3 °C (dec.).

In the case of `Cc1cccc(C)c1OCC(C)N` (centres unmarked) [mexiletine, reference compound], the IC50 in data set [3] is 17000 nM.

With `CC(C)Oc1ccc(N(C)CCC2(O)CCN(CCc3cccs3)CC2)cc1.Cl.Cl` [Example 86, 4-[2-[N-methyl-N-(4-isopropoxyphenyl)amino]ethyl]-1-[2-(2-thienyl)ethyl]piperidin-4-ol dihydrochloride], the melting point is 203 to 204.5 °C. Moreover, the inhibition in vivo at 10 mg/kg in data set [1] (setting [7]) is 19%. Besides, in data set [1] (setting [8]), the inhibition in vivo at 10 mg/kg is 62%. This compound gave an IC50 in data set [2] of 1650 nM.

In data set [3], `O=C1NC(=O)C(c2ccccc2)(c2ccccc2)N1` [phenytoin, reference compound] came in with an IC50 of 51000 nM.

As for `CC(C)Oc1ccc(N(C)CCC2(O)CCN(CCc3ccc(Cl)cc3)CC2)cc1` [Example 60, 1-[2-(4-chlorophenyl)ethyl]-4-[2-[N-methyl-N-(4-isopropoxyphenyl)amino]ethyl]piperidin-4-ol dihydrochloride], the inhibition in vivo at 10 mg/kg in data set [1] (setting [7]) stood at 61%; in data set [1] (setting [8]), 92%.

In turn, `CCOc1ccc(N(C)CCC2(O)CCN(CCc3ccc(C#N)cc3)CC2)cc1.Cl.Cl` [Example 90, 1-[2-(4-cyanophenyl)ethyl]-4-[2-[N-(4-ethoxyphenyl)-N-methylamino]ethyl]piperidin-4-ol dihydrochloride] had a melting point of 214 to 215.2 °C. In addition, in data set [1] (setting [7]), the inhibition in vivo at 10 mg/kg stood at 55%. The inhibition in vivo at 10 mg/kg in data set [1] (setting [8]) was 65%.

On to `CC(C)Oc1ccc(N(C)CCC2(O)CCN(CCc3ccc([N+](=O)[O-])cc3)CC2)cc1` [Example 56, 4-[2-[N-methyl-N-(4-isopropoxyphenyl)amino]ethyl]-1-[2-(4-nitrophenyl)ethyl]piperidin-4-ol dihydrochloride], for which the inhibition in vivo at 10 mg/kg in data set [1] (setting [7]) amounted to 40%; in data set [1] (setting [8]) it was 70%.
